13 compounds from patent US20150231162A1, “FRUCTOSE ABSORPTION INHIBITOR” (Nagaoka Perfumery Co., Ltd., priority 2011, published 2015) can be followed below.

One assay has as its system human colon carcinoma cell line, Caco-2. Briefly: Fructose absorption inhibitory activity in the intestinal tracts (fructose permeation across a Caco-2 monolayer in Transwell inserts). It counts as cell-based. Conditions: Dosage 5 μg/ml; 50 mM fructose, 3 h, Caco-2 Transwell. The method, then:
Evaluation of fructose absorption inhibitory activity was carried out using the human colon carcinoma cell line, Caco-2 (manufactured by Dainippon Sumitomo Pharma Co., Ltd.) utilized for model experiments of the small intestinal mucosa. […] Caco-2 cells were seeded in a 6-well Transwell Insert (internal area: 4.2 cm2) and subcultured for around 3 weeks, while DMEM medium was replaced once every 3 to 4 days, until the Caco-2 cell density became around 2×10^5 cells/insert. The TEER value was measured before experiments and the state of Caco-2 cells was confirmed. […] Medium in the 6-well Transwell Insert was removed. […] A sample solution of each sample illustrated in Table 1 was added to the insert and each mixture was preincubated for 5 min. […] The TEER values were measured. […] The measurement was carried out three times for each sample illustrated in Table 1. The fructose concentrations of the permeated solutions were measured by an enzymatic method using D-fructose dehydrogenase (derived from Gluconobac sp.) (The concentration of each reagent represents the final concentration, respectively.). […] The fructose absorption inhibitory rate of each compound was determined using the following formula (I). […] As control, measurement was also carried out for gallic acid, ellagic acid, quercetin, (+)-catechin, (−)-epicatechin and (−)-epigallocatechin gallate.
Take `O=C(O[C@@H]1O[C@@H]2COC(=O)c3cc(O)c(O)c(O)c3-c3c(cc(O)c(O)c3O)C(=O)O[C@H]2[C@H](OC(=O)c2cc(O)c(O)c(O)c2)[C@H]1O)c1cc(O)c(O)c(O)c1` [compound 5, 1,3-di-O-galloyl-4,6-HHDP-β-D-glucose]: the “Inhibitory Rate” value is 57%.

As to `O=C(O[C@H]1[C@@H]2OC(=O)c3cc(O)c(O)c(O)c3-c3c(cc(O)c(O)c3O)C(=O)OC[C@H]2OC(O)[C@@H]1OC(=O)c1cc(O)c(O)c(O)c1)c1cc(O)c(O)c(O)c1` (stereo partly shown) [compound 1, Tellimagrandin I], the “Inhibitory Rate” value is recorded as 49%. With “(−)-epigallocatechin gallate [compound 16, reference compound]”, the “Inhibitory Rate” value is listed as 28%. For the compound `O=C(O[C@H]1[C@@H]2OC(=O)c3cc(O)c(O)c(O)c3-c3c4cc(c(O)c3O)Oc3c(cc(O)c(O)c3O)C(=O)O[C@H]3C(O)O[C@@H]5COC(=O)c6cc(O)c(O)c(O)c6-c6c(cc(c(O)c6O)Oc6c(cc(O)c(O)c6O)C(=O)O[C@H]1C(O)O[C@@H]2COC4=O)C(=O)O[C@H]5[C@@H]3OC(=O)c1cc(O)c(O)c(O)c1)c1cc(O)c(O)c(O)c1` (stereo partly shown) [compound 7, Oenothein B], the “Inhibitory Rate” value is on record as 63%. Same read-out and setting: the same measure for Eugeniflorin D2 [compound 6]: 53%.

The same assay, now with this note: Dosage 50 μg/ml; 50 mM fructose, 3 h, Caco-2 Transwell.
Turning to `Oc1cc(O)c2c(c1)O[C@H](c1ccc(O)c(O)c1)[C@@H](O)C2` [compound 14, (+)-catechin, reference compound], the “Inhibitory Rate” value is less than 10%. For the compound `Oc1cc(O)c2c(c1)O[C@H](c1ccc(O)c(O)c1)[C@H](O)C2` [compound 15, (−)-epicatechin, reference compound], the “Inhibitory Rate” value is on record as less than 10%.

The same assay, now with this note: Homo sapiens; Dosage 5 μg/ml; 50 mM fructose, 3 h, Caco-2 Transwell; read-out: Inhibitory Rate.
With `O=C(O[C@@H]1O[C@@H]2COC(=O)c3cc(O)c(O)c(O)c3-c3c(cc(O)c(O)c3O)C(=O)O[C@H]2[C@H](O)[C@H]1O)c1cc(O)c(O)c(O)c1` [compound 3, Strictinin], the inhibition at 5 µg/mL came out at 43%. On to `O=C(OC1O[C@@H]2COC(=O)c3cc(O)c(O)c(O)c3-c3c(cc(O)c(O)c3O)C(=O)O[C@H]2[C@H](OC(=O)c2cc(O)c(O)c(O)c2)[C@H]1OC(=O)c1cc(O)c(O)c(O)c1)c1cc(O)c(O)c(O)c1` (stereo partly shown) [compound 2, Tellimagrandin II], for which the inhibition at 5 µg/mL came to 52%. Same read-out and setting: the same measure for `O=C(O[C@@H]1O[C@@H]2COC(=O)c3cc(O)c(O)c(O)c3-c3cc(c(O)c(O)c3O)C(=O)O[C@H]2[C@@H]2OC(=O)c3cc(O)c(O)c(O)c3-c3c(cc(O)c(O)c3O)C(=O)O[C@@H]12)c1cc(O)c(O)c(O)c1` [compound 4, Casuarictin]: 46%.

The same assay, now with this note: Homo sapiens; Dosage 50 μg/ml; 50 mM fructose, 3 h, Caco-2 Transwell; read-out: Inhibitory Rate.
For the compound `O=C(O)c1cc(O)c(O)c(O)c1` [compound 11, Gallic acid, reference compound], the inhibition at 50 µg/mL was found to be 19%.

In the case of `O=c1oc2c(O)c(O)cc3c(=O)oc4c(O)c(O)cc1c4c23` [compound 12, Ellagic acid, reference compound], the inhibition at 50 µg/mL stood at 22%. Regarding `O=c1c(O)c(-c2ccc(O)c(O)c2)oc2cc(O)cc(O)c12` [compound 13, Quercetin, reference compound], the inhibition at 50 µg/mL was 23%.
